Measurements published in US12655156B2, “Oxadiazolopyrazines and oxadiazolopyridines useful as mitochondrial uncouplers” (Virginia Tech Intellectual Properties, Inc., priority 2018, dated 2026).

Tested on: whole cells (NMuLi, C2C12, and L6 cells, isolated cardiomyocytes, human primary fibroblasts)
Test: Oxygen consumption rate (OCR) in whole cells, Seahorse XF-24 Flux Analyzer
Assay type: cell-based
Details: increase in OCR; binned EC50 values
Experimental: Biological activities of the compounds synthesized is determined by determining increase in oxygen consumption rate (OCR).
Oxygen consumption rate (OCR) in whole cells is measured in general accordance with the method of Kenwood B M et al. (Mol. Met. (2014) 3:114-123).
OCR is measured using a Seahorse XF-24 Flux Analyzer (Seahorse Biosciences, North Billerica, MA). NMuLi, C2C12, and L6 cells are seeded in a Seahorse 24-well tissue culture plate at a density of 3.5×10^4 cells/well, isolated cardiomyocytes at a density of 4×10^4 cells/well, and human primary fibroblasts at a density of 1.1×10^4 cells/well. The cells are then allowed to adhere for 24 h. Prior to the assay, the media is changed to unbuffered DMEM containing pyruvate and glutamine (Gibco #12800-017, pH=7.4 at 37° C.) and the cells are equilibrated for 30 mins at 37°° C. Compounds are injected during the assay and OCR is measured using 2 min measurement periods.
2-3 wells are used per condition and averaged over three plates (n=6-9). Statistical significance is determined by two-way ANOVA with Bonferroni's posttest.
Activities are reported as binned EC50 values: A=5 μM or less; B=>5 to 20 μM; C=over 20 μM; NA=not active.

SMILES	EC50 [µM]
Oc1nc2nonc2nc1NC12CC3CC(CC(C3)C1)C2 [1-81, 6-(((3S,5S,7S)-adamantan-1-yl)amino)-[1,2,5]oxadiazolo[3,4-b]pyrazin-5-ol]	5 to 20
Oc1nc2nonc2nc1Nc1cccc(-c2ccccc2)c1 [1-104, 6-([1,1′-biphenyl]-3-ylamino)-[1,2,5]oxadiazolo[3,4-b]pyrazin-5-ol]	≤ 5
Oc1nc2nonc2nc1Nc1ccc(SC(F)(F)F)cc1 [1-25, 6-((4-((Trifluoromethyl)thio)phenyl)amino)-[1,2,5]oxadiazolo[3,4-b]pyrazin-5-ol]	≤ 5
CCc1cccc(Nc2nc3nonc3nc2O)c1 [1-46, 6-((3-Ethylphenyl)amino)-[1,2,5]oxadiazolo[3,4-b]pyrazin-5-ol]	5 to 20
COc1nc2nonc2cc1Nc1ccc(-c2ccc(C(F)(F)F)nc2)cc1 [1-225, 5-methoxy-N-(4-(6-(trifluoromethyl)pyridin-3-yl)phenyl)-[1,2,5]oxadiazolo[3,4-b]pyridin-6-amine]	> 20
Oc1nc2nonc2nc1Nc1ccc(-c2ccc(F)cc2)c(F)c1 [1-125, 6-((2,4′-difluoro-[1,1′-biphenyl]-4-yl)amino)-[1,2,5]oxadiazolo[3,4-b]pyrazin-5-ol]	≤ 5
Cc1cccc(C)c1Nc1nc2nonc2nc1O [1-56, 6-((2,6-Dimethylphenyl)amino)-[1,2,5]oxadiazolo[3,4-b]pyrazin-5-ol]	≤ 5
Oc1nc2nonc2nc1Nc1ccc(OC(F)(F)F)c(Cl)c1 [1-24, 6-((3-Chloro-4-(trifluoromethoxy)phenyl)amino)-[1,2,5]oxadiazolo[3,4-b]pyrazin-5-ol]	≤ 5
Cc1ccc(C(F)(F)F)cc1Nc1nc2nonc2nc1O [1-12, 6-((2-Methyl-5-(trifluoromethyl)phenyl)amino)-[1,2,5]oxadiazolo[3,4-b]pyrazin-5-ol]	5 to 20
O=[N+]([O-])c1cccc(Nc2nc3nonc3nc2O)c1 [1-206, 6-((3-nitrophenyl)amino)-[1,2,5]oxadiazolo[3,4-b]pyrazin-5-ol]	> 20
Oc1nc2nonc2nc1Nc1cccc(F)c1F [1-14, 6-((2,3-Difluorophenyl)amino)-[1,2,5]oxadiazolo[3,4-b]pyrazin-5-ol]	5 to 20
Oc1nc2nonc2nc1Nc1ccc(F)cc1 [1-5, 6-((4-Fluorophenyl)amino)-[1,2,5]oxadiazolo[3,4-b]pyrazin-5-ol]	> 20
Oc1nc2nonc2nc1Nc1ccc(F)c(Br)c1 [1-33, 6-((3-Bromo-4-fluorophenyl)amino)-[1,2,5]oxadiazolo[3,4-b]pyrazin-5-ol]	5 to 20
Oc1nc2nonc2nc1Nc1cccc(OCc2ccc(C(F)(F)F)cc2)c1 [1-97, 6-((3-((4-(Trifluoromethyl)benzyl)oxy)phenyl)amino)-[1,2,5]oxadiazolo[3,4-b]pyrazin-5-ol]	≤ 5
Oc1nc2nonc2nc1Nc1ccc2c(c1)OC(F)(F)O2 [1-93, 6-((2,2-difluorobenzo[d][1,3]dioxol-5-yl)amino)-[1,2,5]oxadiazolo[3,4-b]pyrazin-5-ol]	5 to 20
Cc1cc(OC(F)(F)F)ccc1Nc1nc2nonc2nc1O [1-32, 6-((2-Methyl-4-(trifluoromethoxy)phenyl)amino)-[1,2,5]oxadiazolo[3,4-b]pyrazin-5-ol]	≤ 5
Oc1nc2nonc2nc1Nc1ccc(C(F)(F)F)c(F)c1 [1-42, 6-((3-Fluoro-4-(trifluoromethyl)phenyl)amino)-[1,2,5]oxadiazolo[3,4-b]pyrazin-5-ol]	5 to 20
CC12CC3CC(C)(C1)CC(Nc1nc4nonc4nc1O)(C3)C2 [1-82, 6-(((1R,3R,5S,7R)-3,5-dimethyladamantan-1-yl)amino)-[1,2,5]oxadiazolo[3,4-b]pyrazin-5-ol]	≤ 5
CCCC#Cc1ccc(Nc2nc3nonc3nc2O)c(OC(F)(F)F)c1 [1-64, 6-((4-(Pent-1-yn-1-yl)-2-(trifluoromethoxy)phenyl)amino)-[1,2,5]oxadiazolo[3,4-b]pyrazin-5-ol]	≤ 5
COc1cc(-c2ccc(Nc3nc4nonc4nc3O)cc2)ccc1F [1-128, 6-((4′-fluoro-3′-methoxy-[1,1′-biphenyl]-4-yl)amino)-[1,2,5]oxadiazolo[3,4-b]pyrazin-5-ol]	> 20
Oc1nc2nonc2nc1Nc1ccc(I)cc1OC(F)(F)F [1-35, 6-((4-Iodo-2-(trifluoromethoxy)phenyl)amino)-[1,2,5]oxadiazolo[3,4-b]pyrazin-5-ol]	≤ 5
CCCCCc1ccc(Nc2nc3nonc3nc2O)c(OC(F)(F)F)c1 [1-69, 6-((4-Pentyl-2-(trifluoromethoxy)phenyl)amino)-[1,2,5]oxadiazolo[3,4-b]pyrazin-5-ol]	≤ 5
Oc1nc2nonc2nc1Nc1ccc(-c2cc(F)cc(F)c2)cc1 [1-121, 6-((3′,5′-difluoro-[1,1′-biphenyl]-4-yl)amino)-[1,2,5]oxadiazolo[3,4-b]pyrazin-5-ol]	≤ 5

SMILES	EC50 [µM]
CC(C)(C)c1cccc(Nc2nc3nonc3nc2O)c1 [1-53, 6-((3-(tert-Butyl)phenyl)amino)-[1,2,5]oxadiazolo[3,4-b]pyrazin-5-ol]	≤ 5
Oc1nc2nonc2nc1Nc1ccc(OC(F)F)cc1 [1-27, 6-((4-(Difluoromethoxy)phenyl)amino)-[1,2,5]oxadiazolo[3,4-b]pyrazin-5-ol]	> 20
N#Cc1cc(-c2ccc(Nc3nc4nonc4nc3O)cc2)cs1 [1-123, 4-(4-((6-hydroxy-[1,2,5]oxadiazolo[3,4-b]pyrazin-5-yl)amino)phenyl)thiophene-2-carbonitrile]	≤ 5
Cc1ccc(-c2cccc(Nc3nc4nonc4nc3O)c2)cc1 [1-132, 6-((4′-methyl-[1,1′-biphenyl]-3-yl)amino)-[1,2,5]oxadiazolo[3,4-b]pyrazin-5-ol]	≤ 5
Oc1nc2nonc2nc1Nc1ccccc1OC(F)(F)F [1-8, 6-((2-(Trifluoromethoxy)phenyl)amino)-[1,2,5]oxadiazolo[3,4-b]pyrazin-5-ol]	≤ 5
Oc1nc2nonc2nc1Nc1ccc(-c2ccc(C(F)(F)F)nc2)cc1 [1-107, 6-((4-(6-(trifluoromethyl)pyridin-3-yl)phenyl)amino)-[1,2,5]oxadiazolo[3,4-b]pyrazin-5-ol]	5 to 20
CC1(C)c2ccccc2-c2ccc(Nc3nc4nonc4nc3O)cc21 [1-118, 6-((9,9-dimethyl-9H-fluoren-2-yl)amino)-[1,2,5]oxadiazolo[3,4-b]pyrazin-5-ol]	≤ 5
CCCCCc1ccc(Nc2nc3nonc3nc2O)cc1 [1-71, 6-((4-pentylphenyl)amino)-[1,2,5]oxadiazolo[3,4-b]pyrazin-5-ol]	> 20
O=C(COc1cccc(Nc2nc3nonc3nc2O)c1)c1ccc(OC(F)(F)F)cc1 [1-98, 2-(3-((6-hydroxy-[1,2,5]oxadiazolo[3,4-b]pyrazin-5-yl)amino)phenoxy)-1-(4-(trifluoromethoxy)phenyl)ethan-1-one]	5 to 20
Oc1nc2nonc2nc1Nc1ccc(C(F)(F)F)cc1 [1-7, 6-((4-(Trifluoromethyl)phenyl)amino)-[1,2,5]oxadiazolo[3,4-b]pyrazin-5-ol]	5 to 20
CCc1ccc(Nc2nc3nonc3nc2O)cc1 [1-61, 6-((4-Ethylphenyl)amino)-[1,2,5]oxadiazolo[3,4-b]pyrazin-5-ol]	5 to 20
Oc1nc2nonc2nc1NC1CCCCC1 [1-212, 6-(cyclohexylamino)-[1,2,5]oxadiazolo[3,4-b]pyrazin-5-ol]	> 20
Oc1nc2nonc2nc1Nc1ccc(F)c(-c2ccc(C(F)(F)F)nc2)c1 [1-116, 6-((4-fluoro-3-(6-(trifluoromethyl)pyridin-3-yl)phenyl)amino)-[1,2,5]oxadiazolo[3,4-b]pyrazin-5-ol]	5 to 20
Oc1nc2nonc2nc1Nc1cccc(I)c1 [1-18, 6-((3-Iodophenyl)amino)-[1,2,5]oxadiazolo[3,4-b]pyrazin-5-ol]	5 to 20
Oc1nc2nonc2nc1Nc1ccccc1C(F)(F)F [1-6, 6-((2-(Trifluoromethyl)phenyl)amino)-[1,2,5]oxadiazolo[3,4-b]pyrazin-5-ol]	5 to 20
Oc1nc2nonc2nc1Nc1cccc2ccccc12 [1-50, 6-(Naphthalen-1-ylamino)-[1,2,5]oxadiazolo[3,4-b]pyrazin-5-ol]	5 to 20
Oc1nc2nonc2nc1Nc1cccc(-c2ccc(Cl)cc2)c1 [1-133, 6-((4′-chloro-[1,1′-biphenyl]-3-yl)amino)-[1,2,5]oxadiazolo[3,4-b]pyrazin-5-ol]	≤ 5
Oc1nc2nonc2nc1Nc1cccc(C(F)(F)F)c1F [1-37, 6-((2-Fluoro-3-(trifluoromethyl)phenyl)amino)-[1,2,5]oxadiazolo[3,4-b]pyrazin-5-ol]	≤ 5
Oc1nc2nonc2nc1Nc1ccc(S(F)(F)(F)(F)F)cc1 [1-30, 6-((4-(Pentafluoro-16-sulfaneyl)phenyl)amino)-[1,2,5]oxadiazolo[3,4-b]pyrazin-5-ol]	≤ 5
CC(=O)c1ccc(Nc2nc3nonc3nc2O)cc1 [1-47, 1-(4-((6-Hydroxy-[1,2,5]oxadiazolo[3,4-b]pyrazin-5-yl)amino)phenyl)ethan-1-one]	> 20
Oc1nc2nonc2nc1Nc1ccc(OCc2ccccc2)cc1 [1-86, 6-((4-(benzyloxy)phenyl)amino)-[1,2,5]oxadiazolo[3,4-b]pyrazin-5-ol]	≤ 5
Oc1nc2nonc2nc1NC1C2CC3CC(C2)CC1C3 [1-85, 6-(((1R,3R,5R,7R)-adamantan-2-yl)amino)-[1,2,5]oxadiazolo[3,4-b]pyrazin-5-ol]	> 20
